# In patent US6525001B1, “Substituted pyrimidine and pyridine herbicides” (Mid-American Commercialization Corporation, priority 1997, dated 2003):
# Experiments:
# Experiment in all cases: Test B pre-/postemergence
# Type in all cases: in vivo
# Parameters in all cases: key: 0 is no effect; 10 is complete control
# [1] = test system: bedstraw (Galium aparine)
# How it was run: (§1)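 Response scores run from 0, meaning no effect, to 10, meaning complete control, assigned by eye relative to controls twelve to sixteen days after spraying. Treatment was both preemergence on planted seed and postemergence on plants at the 1- to 4-leaf stage.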
# [2] = test system: blackgrass (Alopecurus myosuroides)
# How it was run: as §1
# [3] = test system: broadleaf signalgrass (Brachiaria decumbens)
# How it was run: as §1
# [4] = test system: cocklebur (Xanthium strumarium)
# How it was run: as §1
# corn (Zea mays) = test system: corn (Zea mays)
# How it was run: as §1
# [5] = test system: crabgrass (Digitaria sanguinalis)
# How it was run: as §1
# [6] = test system: giant foxtail (Setaria faberii)
# How it was run: as §1
# [7] = test system: momingglory (Ipomoea hederacea)
# How it was run: as §1
# [8] = test system: pigweed (Amaranthus retroflexus)
# How it was run: as §1
# rape (Brassica napus) = test system: rape (Brassica napus)
# How it was run: as §1
# soybean (Glycine max) = test system: soybean (Glycine max)
# How it was run: as §1
# [9] = test system: sugar beet (Beta vulgaris)
# How it was run: as §1
# [10] = test system: velvetleaf (Abutilon theophrasti)
# How it was run: as §1
# [11] = test system: wheat (Triticum aestivum)
# How it was run: as §1
# [12] = Preemergence, Rate 62 g/ha, scale of 0 to 10
structure (smiles),measurement,setting,value
Cc1cnc(-n2ccc(C(F)(F)F)n2)nc1C(=O)c1cccc(OC(F)(F)F)c1 [Compound 66],"Plant response rating, Bedstraw",[1]; [12],1
same,Bedstraw plant response rating,"[1]; Rate 62 g/ha, Postemergence",2
same,Bedstraw plant response rating,"[1]; Rate 125 g/ha, Postemergence",3
same,"Plant response rating, Bedstraw","[1]; Rate 125 g/ha, Preemergence",2
same,"Plant response rating, Bedstraw","[1]; Rate 250 g/ha, Postemergence",6
same,"Plant response rating, Bedstraw","[1]; Rate 250 g/ha, Preemergence",3
same,"Plant response rating, Bedstraw","[1]; Rate 500 g/ha, Postemergence",8
same,"Plant response rating, Bedstraw","[1]; Rate 500 g/ha, Preemergence",8
same,"Plant response rating, Blackgrass",[2]; [12],3
same,Blackgrass plant response rating,"[2]; Rate 62 g/ha, Postemergence",2
same,Blackgrass plant response rating,"[2]; Rate 125 g/ha, Postemergence",3
same,"Plant response rating, Blackgrass","[2]; Rate 125 g/ha, Preemergence",3
same,"Plant response rating, Blackgrass","[2]; Rate 250 g/ha, Postemergence",5
same,"Plant response rating, Blackgrass","[2]; Rate 250 g/ha, Preemergence",8
same,"Plant response rating, Blackgrass","[2]; Rate 500 g/ha, Postemergence",6
same,"Plant response rating, Blackgrass","[2]; Rate 500 g/ha, Preemergence",10
same,B. signalgrass plant response rating,"[3]; Rate 62 g/ha, Postemergence",2
same,B. signalgrass plant response rating,"[3]; Rate 62 g/ha, Preemergence",9
same,B. signalgrass plant response rating,"[3]; Rate 125 g/ha, Postemergence",3
same,"Plant response rating, B. signalgrass","[3]; Rate 125 g/ha, Preemergence",9
same,"Plant response rating, B. signalgrass","[3]; Rate 250 g/ha, Postemergence",4
same,"Plant response rating, B. signalgrass","[3]; Rate 250 g/ha, Preemergence",9
same,"Plant response rating, B. signalgrass","[3]; Rate 500 g/ha, Postemergence",5
same,"Plant response rating, B. signalgrass","[3]; Rate 500 g/ha, Preemergence",10
same,"Plant response rating, Cocklebur",[4]; [12],0
same,Cocklebur plant response rating,"[4]; Rate 62 g/ha, Postemergence",3
same,Cocklebur plant response rating,"[4]; Rate 125 g/ha, Postemergence",4
same,"Plant response rating, Cocklebur","[4]; Rate 125 g/ha, Preemergence",0
same,"Plant response rating, Cocklebur","[4]; Rate 250 g/ha, Postemergence",4
same,"Plant response rating, Cocklebur","[4]; Rate 250 g/ha, Preemergence",0
same,"Plant response rating, Cocklebur","[4]; Rate 500 g/ha, Postemergence",5
same,"Plant response rating, Cocklebur","[4]; Rate 500 g/ha, Preemergence",3
same,"Plant response rating, Corn",corn (Zea mays); [12],0
same,Corn plant response rating,"corn (Zea mays); Rate 62 g/ha, Postemergence",1
same,Corn plant response rating,"corn (Zea mays); Rate 125 g/ha, Postemergence",2
same,"Plant response rating, Corn","corn (Zea mays); Rate 125 g/ha, Preemergence",1
same,"Plant response rating, Corn","corn (Zea mays); Rate 250 g/ha, Postemergence",2
same,"Plant response rating, Corn","corn (Zea mays); Rate 250 g/ha, Preemergence",1
same,"Plant response rating, Corn","corn (Zea mays); Rate 500 g/ha, Postemergence",3
same,"Plant response rating, Corn","corn (Zea mays); Rate 500 g/ha, Preemergence",3
same,"Plant response rating, Crabgrass",[5]; [12],6
same,Crabgrass plant response rating,"[5]; Rate 62 g/ha, Postemergence",2
same,Crabgrass plant response rating,"[5]; Rate 125 g/ha, Postemergence",7
same,"Plant response rating, Crabgrass","[5]; Rate 125 g/ha, Preemergence",9
same,"Plant response rating, Crabgrass","[5]; Rate 250 g/ha, Postemergence",8
same,"Plant response rating, Crabgrass","[5]; Rate 250 g/ha, Preemergence",9
same,"Plant response rating, Crabgrass","[5]; Rate 500 g/ha, Postemergence",10
same,"Plant response rating, Crabgrass","[5]; Rate 500 g/ha, Preemergence",9
same,"Plant response rating, Giant foxtail",[6]; [12],0
same,Giant foxtail plant response rating,"[6]; Rate 62 g/ha, Postemergence",2
same,Giant foxtail plant response rating,"[6]; Rate 125 g/ha, Postemergence",2
same,"Plant response rating, Giant foxtail","[6]; Rate 125 g/ha, Preemergence",1
same,"Plant response rating, Giant foxtail","[6]; Rate 250 g/ha, Postemergence",2
same,"Plant response rating, Giant foxtail","[6]; Rate 250 g/ha, Preemergence",2
same,"Plant response rating, Giant foxtail","[6]; Rate 500 g/ha, Postemergence",4
same,"Plant response rating, Giant foxtail","[6]; Rate 500 g/ha, Preemergence",4
same,"Plant response rating, Morningglory",[7]; [12],2
same,Morningglory plant response rating,"[7]; Rate 62 g/ha, Postemergence",2
same,Morningglory plant response rating,"[7]; Rate 125 g/ha, Postemergence",4
same,"Plant response rating, Morningglory","[7]; Rate 125 g/ha, Preemergence",3
same,"Plant response rating, Morningglory","[7]; Rate 250 g/ha, Postemergence",9
same,"Plant response rating, Morningglory","[7]; Rate 250 g/ha, Preemergence",3
same,"Plant response rating, Morningglory","[7]; Rate 500 g/ha, Postemergence",10
same,"Plant response rating, Morningglory","[7]; Rate 500 g/ha, Preemergence",9
same,"Plant response rating, Redroot pigweed",[8]; [12],7
same,Redroot pigweed plant response rating,"[8]; Rate 62 g/ha, Postemergence",8
same,Redroot pigweed plant response rating,"[8]; Rate 125 g/ha, Postemergence",9
same,"Plant response rating, Redroot pigweed","[8]; Rate 125 g/ha, Preemergence",9
same,"Plant response rating, Redroot pigweed","[8]; Rate 250 g/ha, Postemergence",10
same,"Plant response rating, Redroot pigweed","[8]; Rate 250 g/ha, Preemergence",9
same,"Plant response rating, Redroot pigweed","[8]; Rate 500 g/ha, Postemergence",10
same,"Plant response rating, Redroot pigweed","[8]; Rate 500 g/ha, Preemergence",10
same,"Plant response rating, Rape",rape (Brassica napus); [12],0
same,Rape plant response rating,"rape (Brassica napus); Rate 62 g/ha, Postemergence",3
same,Rape plant response rating,"rape (Brassica napus); Rate 125 g/ha, Postemergence",3
same,"Plant response rating, Rape","rape (Brassica napus); Rate 125 g/ha, Preemergence",0
same,"Plant response rating, Rape","rape (Brassica napus); Rate 250 g/ha, Postemergence",7
same,"Plant response rating, Rape","rape (Brassica napus); Rate 250 g/ha, Preemergence",4
same,"Plant response rating, Rape","rape (Brassica napus); Rate 500 g/ha, Postemergence",7
same,"Plant response rating, Rape","rape (Brassica napus); Rate 500 g/ha, Preemergence",8
same,"Plant response rating, Soybean",soybean (Glycine max); [12],0
same,Soybean plant response rating,"soybean (Glycine max); Rate 62 g/ha, Postemergence",5
same,Soybean plant response rating,"soybean (Glycine max); Rate 125 g/ha, Postemergence",5
same,"Plant response rating, Soybean","soybean (Glycine max); Rate 125 g/ha, Preemergence",0
same,"Plant response rating, Soybean","soybean (Glycine max); Rate 250 g/ha, Postemergence",6
same,"Plant response rating, Soybean","soybean (Glycine max); Rate 250 g/ha, Preemergence",0
same,"Plant response rating, Soybean","soybean (Glycine max); Rate 500 g/ha, Postemergence",7
same,"Plant response rating, Soybean","soybean (Glycine max); Rate 500 g/ha, Preemergence",1
same,"Plant response rating, Sugarbeets",[9]; [12],9
same,Sugarbeets plant response rating,"[9]; Rate 62 g/ha, Postemergence",10
same,Sugarbeets plant response rating,"[9]; Rate 125 g/ha, Postemergence",10
same,"Plant response rating, Sugarbeets","[9]; Rate 125 g/ha, Preemergence",10
same,"Plant response rating, Sugarbeets","[9]; Rate 250 g/ha, Postemergence",10
same,"Plant response rating, Sugarbeets","[9]; Rate 250 g/ha, Preemergence",10
same,"Plant response rating, Sugarbeets","[9]; Rate 500 g/ha, Postemergence",10
same,"Plant response rating, Sugarbeets","[9]; Rate 500 g/ha, Preemergence",10
same,"Plant response rating, Velvetleaf",[10]; [12],1
same,Velvetleaf plant response rating,"[10]; Rate 62 g/ha, Postemergence",4
same,Velvetleaf plant response rating,"[10]; Rate 125 g/ha, Postemergence",5
same,"Plant response rating, Velvetleaf","[10]; Rate 125 g/ha, Preemergence",4
same,"Plant response rating, Velvetleaf","[10]; Rate 250 g/ha, Postemergence",6
same,"Plant response rating, Velvetleaf","[10]; Rate 250 g/ha, Preemergence",8
same,"Plant response rating, Velvetleaf","[10]; Rate 500 g/ha, Postemergence",8
same,"Plant response rating, Velvetleaf","[10]; Rate 500 g/ha, Preemergence",8
same,"Plant response rating, Wheat",[11]; [12],0
same,Wheat plant response rating,"[11]; Rate 62 g/ha, Postemergence",2
same,Wheat plant response rating,"[11]; Rate 125 g/ha, Postemergence",2
same,"Plant response rating, Wheat","[11]; Rate 125 g/ha, Preemergence",1
same,"Plant response rating, Wheat","[11]; Rate 250 g/ha, Postemergence",2
same,"Plant response rating, Wheat","[11]; Rate 250 g/ha, Preemergence",2
same,"Plant response rating, Wheat","[11]; Rate 500 g/ha, Postemergence",3
same,"Plant response rating, Wheat","[11]; Rate 500 g/ha, Preemergence",3
